Assay results as given in patent publication US20090181963A1, “3H-[1,2,3]TRIAZOLO[4,5-D]PYRIMIDINE COMPOUNDS, THEIR USE AS mTOR KINASE AND PI3 KINASE INHIBITORS, AND THEIR [sequence]” (Wyeth, priority 2008, published 2009).

Legend:
PI3 Kinase α = PI3 Kinase α (Homo sapiens, UniProt P42336); test: Fluorescence polarization assay for PI3K (PI3 Kinase α); assay type: biochemical; conditions: diC8-PI(4,5)P2 substrate, 25 μM ATP, one hour at 25° C.
PI3 Kinase γ = PI3 Kinase γ (Homo sapiens, UniProt P48736); test: Fluorescence polarization assay for PI3K (PI3 Kinase γ); assay type: biochemical; conditions: diC8-PI(4,5)P2 substrate, 25 μM ATP, one hour at 25° C.
Sequence of PI3 Kinase γ (P48736 whole entry): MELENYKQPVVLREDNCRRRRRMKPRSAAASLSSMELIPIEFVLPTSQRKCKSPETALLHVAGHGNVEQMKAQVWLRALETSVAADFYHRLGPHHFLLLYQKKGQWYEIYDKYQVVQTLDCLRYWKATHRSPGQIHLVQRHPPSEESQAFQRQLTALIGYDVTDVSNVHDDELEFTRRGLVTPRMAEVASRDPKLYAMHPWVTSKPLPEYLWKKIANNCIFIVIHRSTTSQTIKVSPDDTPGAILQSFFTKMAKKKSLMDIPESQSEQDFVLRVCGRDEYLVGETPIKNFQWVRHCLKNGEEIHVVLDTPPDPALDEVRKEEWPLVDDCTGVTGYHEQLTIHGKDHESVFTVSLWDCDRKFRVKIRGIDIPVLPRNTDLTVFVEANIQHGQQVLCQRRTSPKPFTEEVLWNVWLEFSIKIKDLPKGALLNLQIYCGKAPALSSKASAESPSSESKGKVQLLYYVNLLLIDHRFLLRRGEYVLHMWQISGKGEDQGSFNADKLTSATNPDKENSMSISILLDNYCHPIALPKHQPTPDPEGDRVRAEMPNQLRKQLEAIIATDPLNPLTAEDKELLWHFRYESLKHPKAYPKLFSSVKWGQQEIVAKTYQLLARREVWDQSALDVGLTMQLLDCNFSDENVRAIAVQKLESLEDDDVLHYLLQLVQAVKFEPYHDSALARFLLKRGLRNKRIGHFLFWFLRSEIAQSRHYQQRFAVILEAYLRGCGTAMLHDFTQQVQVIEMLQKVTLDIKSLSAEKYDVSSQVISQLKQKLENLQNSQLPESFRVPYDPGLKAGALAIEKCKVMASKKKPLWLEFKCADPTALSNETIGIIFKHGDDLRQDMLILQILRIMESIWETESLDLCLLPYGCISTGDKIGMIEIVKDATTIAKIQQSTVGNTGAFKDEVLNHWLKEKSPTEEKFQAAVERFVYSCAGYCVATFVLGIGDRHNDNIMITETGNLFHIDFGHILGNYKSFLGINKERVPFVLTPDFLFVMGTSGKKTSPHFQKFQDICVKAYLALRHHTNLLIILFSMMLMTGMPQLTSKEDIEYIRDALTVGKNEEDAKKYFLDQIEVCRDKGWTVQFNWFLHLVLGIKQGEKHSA

Sequence of PI3 Kinase α (P42336 whole entry): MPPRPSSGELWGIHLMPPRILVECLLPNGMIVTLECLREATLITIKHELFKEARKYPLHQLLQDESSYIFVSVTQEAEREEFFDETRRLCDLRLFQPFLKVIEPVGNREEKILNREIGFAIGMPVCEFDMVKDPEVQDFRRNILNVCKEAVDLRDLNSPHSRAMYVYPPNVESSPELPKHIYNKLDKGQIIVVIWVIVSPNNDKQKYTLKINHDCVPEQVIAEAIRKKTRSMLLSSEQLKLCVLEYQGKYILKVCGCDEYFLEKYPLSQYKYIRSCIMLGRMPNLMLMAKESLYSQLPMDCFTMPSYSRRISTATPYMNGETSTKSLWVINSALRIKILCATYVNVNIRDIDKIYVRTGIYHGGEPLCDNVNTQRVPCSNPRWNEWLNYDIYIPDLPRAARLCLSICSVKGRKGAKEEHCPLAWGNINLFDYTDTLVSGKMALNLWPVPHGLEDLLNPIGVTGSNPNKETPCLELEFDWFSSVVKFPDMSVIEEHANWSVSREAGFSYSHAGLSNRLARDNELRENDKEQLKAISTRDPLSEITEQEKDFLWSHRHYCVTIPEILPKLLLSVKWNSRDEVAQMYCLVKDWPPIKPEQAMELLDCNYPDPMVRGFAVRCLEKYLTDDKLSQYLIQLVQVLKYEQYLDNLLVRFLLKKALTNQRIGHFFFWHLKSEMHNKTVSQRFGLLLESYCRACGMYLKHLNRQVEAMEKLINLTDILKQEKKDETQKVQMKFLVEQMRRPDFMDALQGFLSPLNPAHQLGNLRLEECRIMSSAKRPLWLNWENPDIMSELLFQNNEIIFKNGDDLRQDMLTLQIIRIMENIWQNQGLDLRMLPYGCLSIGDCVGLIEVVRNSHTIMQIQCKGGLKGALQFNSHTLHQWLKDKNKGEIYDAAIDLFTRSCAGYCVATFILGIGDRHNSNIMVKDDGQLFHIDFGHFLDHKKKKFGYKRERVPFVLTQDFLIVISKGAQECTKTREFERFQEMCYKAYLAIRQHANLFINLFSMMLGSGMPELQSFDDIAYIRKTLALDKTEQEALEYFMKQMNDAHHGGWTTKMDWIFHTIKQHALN
Sequence of PI3 Kinase α (P27986 whole entry partner): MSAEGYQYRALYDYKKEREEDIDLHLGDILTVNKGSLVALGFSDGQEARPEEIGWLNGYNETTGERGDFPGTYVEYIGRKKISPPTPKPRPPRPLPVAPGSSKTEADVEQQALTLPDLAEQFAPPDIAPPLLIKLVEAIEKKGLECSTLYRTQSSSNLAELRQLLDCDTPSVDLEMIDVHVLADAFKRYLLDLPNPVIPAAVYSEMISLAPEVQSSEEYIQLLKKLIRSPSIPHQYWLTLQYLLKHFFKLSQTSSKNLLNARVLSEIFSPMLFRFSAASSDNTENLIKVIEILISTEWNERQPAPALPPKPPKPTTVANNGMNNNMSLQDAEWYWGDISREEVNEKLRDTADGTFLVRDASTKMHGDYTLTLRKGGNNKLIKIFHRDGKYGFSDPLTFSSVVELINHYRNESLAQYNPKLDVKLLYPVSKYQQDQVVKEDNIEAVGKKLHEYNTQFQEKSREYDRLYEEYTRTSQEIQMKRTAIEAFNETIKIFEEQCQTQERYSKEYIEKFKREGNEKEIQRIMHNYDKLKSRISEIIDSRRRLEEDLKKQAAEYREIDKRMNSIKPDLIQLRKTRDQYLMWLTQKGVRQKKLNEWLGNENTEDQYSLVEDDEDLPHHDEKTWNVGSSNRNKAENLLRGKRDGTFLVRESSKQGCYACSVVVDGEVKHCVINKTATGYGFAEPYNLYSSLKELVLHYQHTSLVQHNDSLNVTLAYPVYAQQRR

Oc1cccc(-c2nc(N3CCOCC3)c3nnn(C4CCNCC4)c3n2)c1 [Example 144, 3-(7-morpholin-4-yl-3-piperidin-4-yl-3H-[1,2,3]triazolo[4,5-d]pyrimidin-5-yl)phenol] gave an IC50 (PI3 Kinase α) of 81.5 nM and an IC50 (PI3 Kinase γ) of 406 nM.
CCn1nnc2c(N3CCOC[C@@H]3C)nc(-c3ccc(NC(=O)Nc4ccc(F)cc4)cc3)nc21 [Example 74, (S)-1-(4-(3-ethyl-7-(3-methylmorpholino)-3H-[1,2,3]triazolo[4,5-d]pyrimidin-5-yl)phenyl)-3-(4-fluorophenyl)urea] was tested, and the IC50 (PI3 Kinase α) was 9.5 nM and the IC50 (PI3 Kinase γ) was 97 nM.
CN(C)c1ccc(NC(=O)Nc2ccc(-c3nc(N4CCOCC4)c4nnn(CC(F)(F)F)c4n3)cc2)cc1 [Example 137, 1-[4-(dimethylamino)phenyl]-3-{4-[7-morpholin-4-yl-3-(2,2,2-trifluoroethyl)-3H-[1,2,3]triazolo[4,5-d]pyrimidin-5-yl]phenyl}urea] gave an IC50 (PI3 Kinase α) of 13 nM and an IC50 (PI3 Kinase γ) of 30.5 nM.
For COC(=O)c1ccc(Cn2nnc3c(N4CCOCC4)nc(-c4cccc(O)c4)nc32)cc1 [Example 241, methyl 4-{[5-(3-hydroxyphenyl)-7-morpholin-4-yl-3H-[1,2,3]triazolo[4,5-d]pyrimidin-3-yl]methyl}benzoate], the IC50 (PI3 Kinase α) was 630 nM and the IC50 (PI3 Kinase γ) was 4910 nM.
CC(C)(C)OC(=O)Cn1nnc2c(N3CCOCC3)nc(-c3cccc(CO)c3)nc21 [Example 232, tert-butyl {5-[3-(hydroxymethyl)phenyl]-7-morpholin-4-yl-3H-[1,2,3]triazolo[4,5-d]pyrimidin-3-yl}acetate] gave an IC50 (PI3 Kinase α) of 370 nM and an IC50 (PI3 Kinase γ) of 1950 nM.
With O=C(Nc1ccc(-c2nc(N3CCOCC3)c3nnn(CCO)c3n2)cc1)Nc1cccnc1 [Example 184, 1-{4-[3-(2-hydroxyethyl)-7-morpholin-4-yl-3H-[1,2,3]triazolo[4,5-d]pyrimidin-5-yl]phenyl}-3-pyridin-3-ylurea] the IC50 (PI3 Kinase α) was 20 nM and the IC50 (PI3 Kinase γ) was 47 nM.
CNCCCCn1nnc2c(N3CCOCC3)nc(-c3cccc(O)c3)nc21 [Example 203, 3-{3-[4-(Methylamino)butyl]-7-morpholin-4-yl-3H-[1,2,3]triazolo[4,5-d]pyrimidin-5-yl}phenol] gave an IC50 (PI3 Kinase α) of 100 nM and an IC50 (PI3 Kinase γ) of 618 nM.
Work on O=C(NC1CC1)c1ccc(Cn2nnc3c(N4CCOCC4)nc(-c4cccc(O)c4)nc32)cc1 [Example 221, N-cyclopropyl-4-{[5-(3-hydroxyphenyl)-7-morpholin-4-yl-3H-[1,2,3]triazolo[4,5-d]pyrimidin-3-yl]methyl}benzamide] yielded an IC50 (PI3 Kinase α) of 303 nM and an IC50 (PI3 Kinase γ) of 1180 nM.
With CC(C)(C)OC(=O)N1CC(n2nnc3c(N4CCOCC4)nc(-c4ccc(NC(=O)Nc5cccs5)cc4)nc32)C1 [Example 132, tert-butyl 3-(7-morpholin-4-yl-5-{4-[(2-thienylcarbamoyl)amino]phenyl}-3H-[1,2,3]triazolo[4,5-d]pyrimidin-3-yl)azetidine-1-carboxylate] the IC50 (PI3 Kinase α) was 21 nM and the IC50 (PI3 Kinase γ) was 1430 nM.
Work on CCn1nnc2c(N3CCOC[C@@H]3C)nc(-c3ccc(NC(=O)Nc4ccc(OC)cc4)cc3)nc21 [Example 73, (S)-1-(4-(3-ethyl-7-(3-methylmorpholino)-3H-[1,2,3]triazolo[4,5-d]pyrimidin-5-yl)phenyl)-3-(4-methoxyphenyl)urea] yielded an IC50 (PI3 Kinase α) of 15.5 nM and an IC50 (PI3 Kinase γ) of 92.5 nM.
O=C(Nc1ccccc1)Nc1ccc(-c2nc(N3CCOCC3)c3nnn(-c4cccc(C(=O)O)c4)c3n2)cc1 [Example 123, 3-(7-morpholin-4-yl-5-{4-[(phenylcarbamoyl)amino]phenyl}-3H-[1,2,3]triazolo[4,5-d]pyrimidin-3-yl)benzoic acid] gave an IC50 (PI3 Kinase α) of 4 nM and an IC50 (PI3 Kinase γ) of 8.5 nM.
Compound CN(C)CCCCn1nnc2c(N3CCOCC3)nc(-c3cccc(O)c3)nc21 [Example 202, 3-{3-[4-(dimethylamino)butyl]-7-morpholin-4-yl-3H-[1,2,3]triazolo[4,5-d]pyrimidin-5-yl}phenol] has an IC50 (PI3 Kinase α) of 224 nM and an IC50 (PI3 Kinase γ) of 780 nM.
O=C(c1ccncc1)N1CCN(CCn2nnc3c(N4CCOCC4)nc(-c4cccc(O)c4)nc32)CC1 [Example 103, 3-{3-[2-(4-isonicotinoylpiperazin-1-yl)ethyl]-7-morpholin-4-yl-3H-[1,2,3]triazolo[4,5-d]pyrimidin-5-yl}phenol] gave an IC50 (PI3 Kinase α) of 987 nM and an IC50 (PI3 Kinase γ) of 5050 nM.
Work on CC(C)n1nnc2c(N3CCOCC3)nc(-c3ccc(NC(N)=O)cc3)nc21 [Example 96, [4-(3-isopropyl-7-morpholin-4-yl-3H-[1,2,3]triazolo[4,5-d]pyrimidin-5-yl)-phenyl]-urea] yielded an IC50 (PI3 Kinase α) of 49.7 nM and an IC50 (PI3 Kinase γ) of 620 nM.
CCn1nnc2c(N3CCOC[C@@H]3C)nc(-c3ccc(NC(=O)Nc4ccc(CO)cc4)cc3)nc21 [Example 70, (S)-1-(4-(3-ethyl-7-(3-methylmorpholino)-3H-[1,2,3]triazolo[4,5-d]pyrimidin-5-yl)phenyl)-3-(4-(hydroxymethyl)phenyl)urea] was tested, and the IC50 (PI3 Kinase α) was 5.5 nM and the IC50 (PI3 Kinase γ) was 102 nM.
NC(=O)c1cccc(-n2nnc3c(N4CCOCC4)nc(-c4cccc(O)c4)nc32)c1 [Example 119, 3-[5-(3-hydroxyphenyl)-7-morpholin-4-yl-3H-[1,2,3]triazolo[4,5-d]pyrimidin-3-yl]benzamide] gave an IC50 (PI3 Kinase α) of 22.5 nM and an IC50 (PI3 Kinase γ) of 314 nM.
CNC(=O)Cn1nnc2c(N3CCOCC3)nc(-c3cccc(CO)c3)nc21 [Example 236, 2-{5-[3-(hydroxymethyl)phenyl]-7-morpholin-4-yl-3H-[1,2,3]triazolo[4,5-d]pyrimidin-3-yl}-N-methylacetamide] showed an IC50 (PI3 Kinase α) of 560 nM and an IC50 (PI3 Kinase γ) of 1880 nM.
With O=C(Nc1ccc(-c2nc(N3CCOCC3)c3nnn(C4CC4)c3n2)cc1)Nc1cccnc1 [Example 79, 1-(4-(3-cyclopropyl-7-morpholino-3H-[1,2,3]triazolo[4,5-d]pyrimidin-5-yl)phenyl)-3-(pyridin-3-yl)urea] the IC50 (PI3 Kinase α) was 7 nM and the IC50 (PI3 Kinase γ) was 34 nM.
CC(C)(C)NC(=O)c1ccc(Cn2nnc3c(N4CCOCC4)nc(-c4cccc(O)c4)nc32)cc1 [Example 222, N-tert-butyl-4-{[5-(3-hydroxyphenyl)-7-morpholin-4-yl-3H-[1,2,3]triazolo[4,5-d]pyrimidin-3-yl]methyl}benzamide] was tested, and the IC50 (PI3 Kinase α) was 420 nM and the IC50 (PI3 Kinase γ) was 1400 nM.
CCn1nnc2c(N3CCOCC3)nc(-c3ccc(NC(=O)Nc4ccc(C(=O)N5CCNC(C)(C)C5)cc4)cc3)nc21 [Example 57, 1-{4-[(3,3-dimethylpiperazin-1-yl)carbonyl]phenyl}-3-[4-(3-ethyl-7-morpholin-4-yl-3H-[1,2,3]triazolo[4,5-d]pyrimidin-5-yl)phenyl]urea] was tested, and the IC50 (PI3 Kinase α) was under 1.7 nM and the IC50 (PI3 Kinase γ) was 7 nM.
Oc1cccc(-c2nc(N3CCOCC3)c3nnn(C4CNC4)c3n2)c1 [Example 125, 3-(3-azetidin-3-yl-7-morpholin-4-yl-3H-[1,2,3]triazolo[4,5-d]pyrimidin-5-yl)phenol] showed an IC50 (PI3 Kinase α) of 130 nM and an IC50 (PI3 Kinase γ) of 1960 nM.
CN(C)CCNC(=O)Nc1ccc(-c2nc(N3CCOCC3)c3nnn(C4CCN(Cc5ccc(Br)nc5)CC4)c3n2)cc1 [Example 155, 1-(4-(3-(1-((6-bromopyridin-3-yl)methyl)piperidin-4-yl)-7-morpholino-3H-[1,2,3]triazolo[4,5-d]pyrimidin-5-yl)phenyl)-3-(2-(dimethylamino)ethyl)urea] showed an IC50 (PI3 Kinase α) of 48 nM and an IC50 (PI3 Kinase γ) of 176 nM.
For CC(C)(C)OC(=O)N1CCC(n2nnc3c(N4CCOCC4)nc(-c4ccc(NC(=O)Nc5ccc(F)cc5)cc4)nc32)CC1 [Example 165, tert-butyl 4-[5-(4-{[(4-fluorophenyl)carbamoyl]amino}phenyl)-7-morpholin-4-yl-3H-[1,2,3]triazolo[4,5-d]pyrimidin-3-yl]piperidine-1-carboxylate], the IC50 (PI3 Kinase α) was 151 nM and the IC50 (PI3 Kinase γ) was 3580 nM.
Compound COc1ccc(NC(=O)Nc2ccc(-c3nc(N4CCOCC4)c4nnn(C(C)C)c4n3)cc2)cc1 [Example 89, 1-(4-methoxy-phenyl)-3-[4-(3-isopropyl-7-morpholin-4-yl-3H-[1,2,3]triazolo[4,5-d]pyrimidin-5-yl)-phenyl]-urea] has an IC50 (PI3 Kinase α) of 15.5 nM and an IC50 (PI3 Kinase γ) of 40 nM.
With CCN1CCCC1CNC(=O)c1ccc(NC(=O)Nc2ccc(-c3nc(N4CCOCC4)c4nnn(CC)c4n3)cc2)cc1 (centres unmarked) [Example 59, 4-({[4-(3-ethyl-7-morpholin-4-yl-3H-[1,2,3]triazolo[4,5-d]pyrimidin-5-yl)phenyl]carbamoyl}amino)-N-[(1-ethylpyrrolidin-2-yl)methyl]benzamide] the IC50 (PI3 Kinase α) was 2.5 nM and the IC50 (PI3 Kinase γ) was 26 nM.
CCn1nnc2c(N3CCOCC3)nc(-c3ccc(NC(=O)NC4CCNCC4)cc3)nc21 [Example 66, 1-[4-(3-ethyl-7-morpholin-4-yl-3H-[1,2,3]triazolo[4,5-d]pyrimidin-5-yl)phenyl]-3-piperidin-4-ylurea] gave an IC50 (PI3 Kinase α) of 400 nM and an IC50 (PI3 Kinase γ) of 2770 nM.
For Cn1nnc2c(N3CCOCC3)nc(-c3ccc(NC(=O)Nc4cccnc4)cc3)nc21 [Example 199, 1-[4-(3-methyl-7-morpholin-4-yl-3H-[1,2,3]triazolo[4,5-d]pyrimidin-5-yl)phenyl]-3-pyridin-3-ylurea], the IC50 (PI3 Kinase α) was 10.5 nM and the IC50 (PI3 Kinase γ) was 49 nM.
Work on “3-{3-[4-(4-Benzylpiperazin-1-yl)butyl]-7-morpholin-4-yl-3H-[1,2,3]triazolo[4,5-d]pyrimidin-5-yl}phenol [Example 206]” yielded an IC50 (PI3 Kinase α) of 116 nM and an IC50 (PI3 Kinase γ) of 216 nM.
Work on CCn1nnc2c(N3CCOC[C@@H]3C)nc(-c3ccc(NC(=O)Nc4cccs4)cc3)nc21 [Example 69, (S)-1-(4-(3-ethyl-7-(3-methylmorpholino)-3H-[1,2,3]triazolo[4,5-d]pyrimidin-5-yl)phenyl)-3-(thiophen-2-yl)urea] yielded an IC50 (PI3 Kinase α) of 8.5 nM and an IC50 (PI3 Kinase γ) of 97.5 nM.
Compound O=C(Nc1ccc(-c2nc(N3CCOCC3)c3nnn(CC(F)(F)F)c3n2)cc1)Nc1ccsc1 [Example 142, 1-{4-[7-morpholin-4-yl-3-(2,2,2-trifluoroethyl)-3H-[1,2,3]triazolo[4,5-d]pyrimidin-5-yl]phenyl}-3-(3-thienyl)urea] has an IC50 (PI3 Kinase α) of 4 nM and an IC50 (PI3 Kinase γ) of 20 nM.
Compound COC(Cn1nnc2c(N3CCOCC3)nc(-c3ccc(NC(=O)Nc4ccc(C(N)=O)cc4)cc3)nc21)OC [Example 182, 4-[({4-[3-(2,2-dimethoxyethyl)-7-morpholin-4-yl-3H-[1,2,3]triazolo[4,5-d]pyrimidin-5-yl]phenyl}carbamoyl)amino]benzamide] has an IC50 (PI3 Kinase α) of 4 nM and an IC50 (PI3 Kinase γ) of 27 nM.
